Entries after “also recorded” stand apart in the source; their conditions may differ. Counter-ions that a name gives are not always drawn.
What was measured:
[1] = therapeutic activity of the oxidized forms; settings: in vivo
Description: (§1) Although NADH and/or NADPH may be used by themselves in pure form (they are quite stable in compressed form when protected from light), it is preferred that they be combined in a galenic formulation with a stabilizer, and most preferably with both a stabilizer and a filler. The use of a stabilizer is preferred to prevent oxidation of NADH and NADPH to NAD^+ and […] , respectively. Although, NADH and NADPH are active for the variety of therapeutic effects discussed above, NAD^+ and NADP^+ are ineffective. Therefore, oxidation of NADH and NADPH must be prevented during storage to provide for a reasonable shelf life. […] NADH/NADPH formulations containing such stabilizers are stable for up to two years. Other various stabilizers will become apparent tc those skilled in the art.

[2] = sublingual administration; type: in vivo
Description: The NADH is merely placed underneath the tongue and resorbed. Unlike the oral form of NADH described in U.S. Pat. No. 5,332,727, a sublingual form should not be coated with an acid stable protective coating.

[3] = stability against pH; type: physicochemical
Description: The NADH may be entrapped in the liposomes in either of two ways. The NADH may be dissolved in the organic solvent together with the lipid(s) and the detergent(s) during the liposome formation. By this procedure, the NADH will be present in the lipid film before the film is solubilized. Alternatively, the NADH may be entrapped by dissolving it in the aqueous solvent (preferably buffered) before the lipid film is exposed to the aqueous solvent. It is important that the aqueous solution of NADH not have a pH below 7 as NADH (and NADPH) are very unstable at pHs below 7. This second method of entrapment (i.e., dissolving NADH in aqueous solution) is preferred.

[4] = system: skin cells; assay: topical application: skin cell life, water uptake, wrinkles; type: in vivo
Description: (§2) The NADH encapsulated by the liposomes is simply applied topically to the skin, and is rubbed into the skin to ensure penetration.

[5] = after intravenous application; cited from earlier work
[6] = dissolution in fluids secreted by the olfactory mucous membrane; type: physicochemical; settings: fluids of the olfactory epithelium
Experimental: Thus, in accordance with the invention, the NADH may be administered to the nasal cavity of a patient afflicted with Parkinson's disease, Alzheimer's disease or mental depression. The NADH may be applied alone or in combination with other substances, for example, a pharmaceutically acceptable carrier or an agent that facilitates the transfer of the NADH through the nasal mucosa. The NADH is administered intranasally as a powder, spray, gel, ointment, infusion, injection or nose drops. The NADH is delivered to the nasal cavity. It is preferred that the NADH be delivered to the olfactory area in the upper third of the nasal cavity, and particularly to the olfactory neuroepithelium in order to promote transport of the NADH into the peripheral olfactory neurons rather than the capillaries within the respiratory epithelium. It is preferred that the transport of NADH to the brain be by means of the nervous system rather than the circulatory system so that the blood-brain barrier from the bloodstream into the brain is circumvented. However, good results can also be obtained through the bloodstream. […] The NADH may be combined with a carrier or other substance that fosters dissolution within nasal secretions, such as the ganglioside GM-1 or the phospolipid phosphatidylserine, or emulsifiers such as polysorbate 80. […]

[7] = shelf/storage stability of pure substance and formulations; type: physicochemical; settings: protected from light
Description: as §1
In general, a preferred formulation will include about 3 to 10% by weight NADH and/or NADPH; about 1 to 10% by weight stabilizer; and the remainder as filler. Such a formulation, after being compressed into a pill and coated, is stable for over 24 months.

[8] = system: skin proliferation layer cells; type: in vivo; settings: topical; for penetration of cutis and entry into cells of the skin proliferation layer: radiolabelled
[9] = system: Parkinson's disease; settings: intravenous, patients with Parkinson's disease; cited from earlier work
[10] = oral form; cited from earlier work
[11] = system: Alzheimer's disease; settings: orally or intravenously; cited from earlier work
[12] = system: mitochondria; assay: stimulation of mitochondrial energy production of skin cells; type: cell-based
Description: as §2

[13] = system: Parkinson's disease; settings: earlier patents; cited from earlier work
[14] = system: Parkinsonian patients; assay: motor system in Parkinsonian patients; type: in vivo, human; settings: sublingual, rectal or nasal; single 5 to 500 mg, daily 5 to 1,500 mg
Experimental: A suitable single dose of NADH and/or NADPH for sublingual, rectal or nasal application is 5 to 500 mg, preferably 25 to 100 mg. A suitable daily dose is 5 to 1,500 mg, preferably 25 to 300 mg.

[15] = system: mitochondrial enzymes; assay: stimulation of enzymes essential for the energy production of skin cells; type: cell-based; settings: topical
Description: In accordance with the invention, an NADH and/or NADPH composition is provided for topical application to the skin. […] The enzymes stimulated are principally the mitochondrial enzymes. The NADH and/or NADPH can be incorporated into a skin compatible cream, lotion or cosmetic, or can be combined with micelles of lipophilic substances. Liposomes are preferred vesicles for delivering the greatest dosages of NADH and/or NADPH into the skin.

[16] = compatibility with lactose; type: physicochemical; settings: lactose as filler
Description: Suitable fillers for use with NADH and NADPH include: mannitol, microcrystalline cellulose, carboxymethyl cellulose; and dibasic calcium phosphate. Other suitable fillers will become apparent to those skilled in the art.

[17] = rectal administration (suppositories); type: in vivo
Experimental: It has also been discovered that good results are obtained when NADH is administered rectally. […] NADH may be administered rectally in the form of suppositories. A suitable suppository formulations are: […]

[18] = system: Alzheimer's disease; assay: nasal administration in Alzheimer's disease; type: in vivo, human
Description: (§3) However, I have now discovered that NADH and/or NADPH is also effective when administered topically (as described above for prolonging the life of skin cells and reducing wrinkles), sublingually, rectally and nasally.

[19] = system: Parkinson's disease; assay: nasal administration in Parkinson's disease; type: in vivo, human
Description: as §3

[20] = nasal absorption and transport to the brain; type: in vivo; settings: inhaled through nasal passages
Description: For a powder spray, the NADH is simply ground into a fine powder and atomized from a spray bottle. Preferably, pure NADH is used for the powder spray, however, it can be used in conjunction with a filler, such as mannitol, as described below.

[21] = system: cell degeneration; settings: presence of uncoupled mitochondria; cited from earlier work

| SMILES | therapeutic effectiveness of oxidized forms [1] | effectiveness when administered sublingually [2] | stability at pH below 7 [3] | cell life [4] | water uptake by the cell / wrinkle formation [4] | degradation in plasma and blood [5] | dissolution in nasal secretions [6] | stability in pure compressed form [7] | absorption by the skin and uptake by the skin cells [8] | entry into cells of the proliferation layer, not encapsulated by liposomes [8] | penetration of cutis and entry into cells of the skin proliferation layer [8] | beneficial effect [9] | duration of beneficial effect [9] | absorption by the intestine [10] | effectiveness in Alzheimer's disease [11] | distribution to mitochondria and stimulation of energy production of the cell [12] | usefulness/effectiveness in Parkinson's disease [13] | effect on motor system [14] | stimulation of enzymes essential for energy production of skin cells [15] | also measured |
| --- | --- | --- | --- | --- | --- | --- | --- | --- | --- | --- | --- | --- | --- | --- | --- | --- | --- | --- | --- | --- |
| NC(=O)c1ccc[n+]([C@@H]2O[C@H](COP(=O)([O-])OP(=O)(O)OC[C@H]3O[C@@H](n4cnc5c(N)ncnc54)[C@H](OP(=O)(O)O)[C@@H]3O)[C@@H](O)[C@H]2O)c1 [NADP^+] | ineffective | – | – | – | – | – | – | – | – | – | – | – | – | – | – | – | – | – | – | – |
| NC(=O)C1=CN([C@@H]2O[C@H](COP(=O)(O)OP(=O)(O)OC[C@H]3O[C@@H](n4cnc5c(N)ncnc54)[C@H](OP(=O)(O)O)[C@@H]3O)[C@@H](O)[C@H]2O)C=CC1 [NADPH, nicotinamide adenine phosphate dinucleotide in its reduced form] | – | effective when administered sublingually | very unstable | prolonged cell life | increased water uptake by the cell, thereby reducing wrinkle formation | not rapidly degraded in the plasma and blood | capable of at least partially dissolving in the fluids | quite stable | absorbed by the skin and penetrate the cutis to be taken up by the skin cells | enters the cells of the proliferation layer | crosses the cutis and enters the cells which comprise the skin proliferation layer | remarkable beneficial effect | at least 24 hours | absorbed by the intestine | effective in the treatment of Parkinson's disease and Alzheimer's disease | goes to the mitochondria where it stimulates the energy production of the cell | effective in the treatment of Parkinson's disease; also recorded: useful in the treatment of Parkinson's Disease | improve the motor system in Parkinsonian patients | stimulate certain enzymes which are essential for the energy production of the cells | – |
| NC(=O)C1=CN([C@@H]2O[C@H](COP(=O)(O)OP(=O)(O)OC[C@H]3O[C@@H](n4cnc5c(N)ncnc54)[C@H](O)[C@@H]3O)[C@@H](O)[C@H]2O)C=CC1 [NADH, nicotinamide adenine dinucleotide in its reduced form] | – | effective when administered sublingually | very unstable | prolonged cell life | increased water uptake by the cell, thereby reducing wrinkle formation | not rapidly degraded in the plasma and blood | capable of at least partially dissolving in the fluids | quite stable | absorbed by the skin and penetrate the cutis to be taken up by the skin cells | enters the cells of the proliferation layer | crosses the cutis and enters the cells which comprise the skin proliferation layer | remarkable beneficial effect | at least 24 hours | absorbed by the intestine | effective in the treatment of Parkinson's disease and Alzheimer's disease | goes to the mitochondria where it stimulates the energy production of the cell | effective in the treatment of Parkinson's disease; also recorded: useful in the treatment of Parkinson's Disease | improve the motor system in Parkinsonian patients | stimulate certain enzymes which are essential for the energy production of the cells | reaction with lactose [16]: reacts with NADH; speed of results, sublingual [2]: very fast results; results when administered rectally [17]: good results; speed of results, rectal ([17]; compared with nasal or sublingual): not obtained as quickly as in the case of nasal or sublingual administration; effectiveness by nasal application in Alzheimer's disease [18]: particularly effective in the treatment of Alzheimer's disease; speed of results, nasal [18]: very fast results; effectiveness by nasal application in Parkinson's disease ([19]; nasal): particularly effective in the treatment of Alzheimer's disease and Parkinson's disease; therapeutic effects, nasal vs oral form ([19]; nasal powder spray): same therapeutic effects as the oral form; nasal absorption and transport to the brain [20]: travels directly to the brain, circumventing the blood-brain barrier; also recorded: absorbed by the mucosa of the nose and travels to the brain through the olfactory neural pathway |
| C[C@@H](O)CC(=O)O [D(-)-β-hydroxybutyrate sodium salt] | – | – | – | – | – | – | – | – | – | – | – | – | – | – | – | – | – | – | – | inhibition of cell degeneration [21]: inhibited cell degeneration resulting from the presence of uncoupled mitochondria in a dose dependent manner |
| NC(=O)c1ccc[n+]([C@@H]2O[C@H](COP(=O)([O-])OP(=O)(O)OC[C@H]3O[C@@H](n4cnc5c(N)ncnc54)[C@H](O)[C@@H]3O)[C@@H](O)[C@H]2O)c1 [NAD^+] | ineffective | – | – | – | – | – | – | – | – | – | – | – | – | – | – | – | – | – | – | – |

Reference: patent publication US5952312A, “NADH and NADPH therapeutic agents for nasal, sublingual, rectal and dermal administration” (Birkmayer Pharmaceuticals, Inc., priority 1998, dated 1999)
